Entries after “also recorded” stand apart in the source; their conditions may differ.
What was measured:
Type in all cases: in vivo, mouse
[1] = system: senescent cells in cortex, cerebellum, and hippocampus; experiment: Senescence markers in cortex, cerebellum and hippocampus, INK-ATTAC mice; conditions: obese and lean INK-ATTAC mice with and without AP
Experimental: (§1) INK-ATTAC mice were injected intraperitoneally (i.p.) with AP20187 (10 mg/kg) or vehicle for 3 days every 2 weeks for a total of 8-10 weeks.
Total RNA was extracted from white adipose tissue and brain using Trizol (Life Technologies, Carlsbad, Calif.) and reverse transcribed to cDNA with a M-MLV Reverse Transcriptase kit (Life Technologies). Real-time PCR was performed in a 7500 Fast Real Time PCR System (Applied Biosystems, Foster City, Calif.) using TaqMan Fast Universal PCR Master Mix (Life Technologies) and predesigned primers and probes from Applied Biosystems (Assay ID: Mm00494449_m1 [CDKN2A]; Mm04205640_g1 [CDKN1A]; Mm00446191_m1 [IL6]). Target gene expression was expressed as 2-ΔΔCT by the comparative CT method and normalized to the expression of TATA-binding protein (TBP) (Assay ID: Mm01277042 ml [TBP]).
Paraffin sections were deparaffinized with Histoclear and hydrated in an ethanol gradient followed by water and PBS. Antigen was retrieved by incubation in 0.01M citrate buffer (pH 6.0) at 95° C. for 10 minutes. Slides were placed in blocking buffer (1:60 normal goat serum [S-1000, Vector Laboratories] in 0.1% BSA/PBS) for 60 minutes at room temperature. […] Primary antibodies used (Table 2) were diluted in blocking buffer and applied overnight at 4° C. The next day, slides were washed 3 times with PBS and incubated for 30 minutes with secondary goat, anti-rabbit antibody (1:200; Vector Laboratories #BA-1000) for TAF staining or for 60 minutes with secondary Alexa antibody (Table 1). […]
A single, 3 μm-thick section per mouse was used for TAF staining, while for Dcx and Plin2 staining was performed on three 10 μm-thick sections 80 μm-apart. To quantify periventricular lipid accumulation 10-30 images in the periventricular region were taken using the DM5500 widefield fluorescence microscope from Leica with a 10× (for frequency of periventricular glia) or ×40 (for ALISE phenotype of ependymal cells) objective lens. Number of Plin2-positive cells (for frequency of ALISE-positive periventricular glia) or area of Plin2-positive vesicles (for ALISE phenotype of ependymal cells) was assessed using ImageJ software. For identity assessment of Plin2+ cells, 10 μm-thick sections were stained with combination of antibodies for Iba1 (secondary antibody conjugated with Alexa Fluor 488), Plin2 (secondary antibody conjugated with Alexa Fluor 594), and Vimentin (secondary antibody conjugated with Alexa Fluor 647) and quantified for frequency of Plin2+ astrocytes (Iba1−, Vim+) and microglia (Iba1+) in the periventricular region. […] For TAF quantification in depth Z stacking was used (images were captured as stacks separated by 0.4 μm with ×63 objective) followed by ImageJ analysis.

INK-ATTAC;db/db mice = experiment: Open field test, INK-ATTAC;db/db mice treated with AP20187; conditions: AP20187 vs vehicle, 2 months
Experimental: as §1
(§2) Locomotor activity and anxiety-like behavior of mice were assessed in sound-insulated, rectangular activity chambers (Med Associates Inc., St Albans, Vt., USA: W×L×D=27 cm×27 cm×20 cm with continually running fans, infrared lasers, and sensors). Beam breaks were assessed in 2-minute bins over 30 minutes, converted automatically to current mouse location and distance travelled (cm), and recorded on a computer with Med-PC software Version 4.0. Before the test, mice were acclimatized to the room for 1-1.5 hours before being introduced into the chambers. Mice were habituated for 5 minutes in the Open Field chamber (without recording) then placed for another 5 minutes in the home cage. Afterwards, mice were introduced back to the chambers and all mouse movements were recorded for 30 minutes. Anxiety was quantified by the distance mice travelled in the central 25% of the chamber (zone 1) as a function of the total distance mice travelled and by frequencies of entries into zone 1.

HFD-fed INK-ATTAC mice [2] = experiment: Elevated plus maze, chow/HFD INK-ATTAC mice treated with AP20187; conditions: INK-ATTAC mice on HFD; AP20187 10 mg/kg i.p. vs vehicle
Experimental: as §1
A grey colored elevated plus maze apparatus was used. Two open arms (25×5 cm) and two closed arms (25×5 cm) were attached at right angles to a central platform (5×5 cm). The apparatus was set 40 cm above the floor. Mice were first acclimatized to the room for 1-1.5 hours. Mice were then placed individually on the central platform with their back to one of the open arms. Before the test, mice were habituated for 1 minute to the maze, then placed back in the home cage for 5 minutes. Mice were tested for 5 minutes during which they could freely explore the apparatus. Tracking software (Ethovision) recognizes mouse head, central body point, and the base of the tail. Anxiety was quantified by frequency of and time spent during head pokes/dips toward open arms. Higher anxiety is indicated by a lower frequency of movement into open arms and less time spent there.

HFD-fed INK-ATTAC mice [3] = experiment: Open field test, chow/HFD INK-ATTAC mice treated with AP20187
Experimental: as §1, §2

[4] = INK-ATTAC mice on HFD, AP20187 10 mg/kg i.p. 3 days every 2 weeks, 8-10 weeks, vs vehicle

`CC[C@H](C(=O)N1CCCC[C@H]1C(=O)O[C@H](CCc1ccc(OC)c(OC)c1)c1cccc(OCC(=O)NCC(CNC(=O)COc2cccc([C@@H](CCc3ccc(OC)c(OC)c3)OC(=O)[C@@H]3CCCCN3C(=O)[C@@H](CC)c3cc(OC)c(OC)c(OC)c3)c2)CN(C)C)c1)c1cc(OC)c(OC)c(OC)c1` [AP] was tested, and the “TAF in cortex, cerebellum, hippocampus” value [1] was “No differences”, the “p16 in cortex, cerebellum, hippocampus” value [1] was “No differences” and the “p21 in cortex, cerebellum, hippocampus” value [1] was “No differences”. For the same compound, the “γ-H2A.X in cortex, cerebellum, hippocampus” value [1] was “No differences”, the “anxiety-like behavior: distance travelled in the central area, open field” value (INK-ATTAC;db/db mice) was “significantly reduced anxiety-like behavior” and the “number of entries into the central area, open field” value (INK-ATTAC;db/db mice) was “not significantly increased”. For the same compound, the “total distance travelled (activity), 30 minute open field” value (INK-ATTAC;db/db mice) was “not affected; also recorded: did not alter”, the “anxiety-like behavior: distance travelled in the central area, open field” value (INK-ATTAC;db/db mice; listed as AP20187) was “significant difference” and the “anxiety-like phenotype: frequency of head entries/pokes into the open arms, EPM” value (HFD-fed INK-ATTAC mice [2]) was “increased; also recorded: significantly decreased the anxiety-like phenotype”. The “time mice spent with their heads in open area, EPM” value (HFD-fed INK-ATTAC mice [2]) was “increased”, the “anxiety-like behavior: distance travelled in the central zone (as function of total distance), open field” value (HFD-fed INK-ATTAC mice [3]; [4]) was “alleviated; also recorded: reduced HFD-induced anxiety-like behavior” and the “anxiety-like behavior: entries into the central zone, open field” value (HFD-fed INK-ATTAC mice [3]; [4]) was “alleviated; also recorded: reduced HFD-induced anxiety-like behavior”. The “total distance travelled, open field” value (HFD-fed INK-ATTAC mice [3]; INK-ATTAC mice, AP20187 10 mg/kg i.p. vs vehicle) was “did not affect” and the “open field parameters (central distance, entries) in chow-fed mice” value (HFD-fed INK-ATTAC mice [3]; chow-fed INK-ATTAC mice, AP20187 10 mg/kg i.p. vs vehicle) was “did not affect”.

Source: patent US20210379068A1, “METHODS AND MATERIALS FOR TREATING NEUROPSYCHIATRIC DISORDERS” (Mayo Foundation for Medical Education and Research, priority 2018, published 2021)
